From patent US20090215684A1, “Use of BPI Protein for Treatment of Diseases” (BRIDGE BIORESEARCH LIMITED, priority 2005, published 2009)
Where “and” joins values, the source holds several entries; their conditions need not be identical. Equal values may be shown once. Marks after values point to notes of the source that are not given here.

Columns and labels:
[1] = system: subjects with glucose intolerance; assay: Randomized clinical study of metformin vs placebo in glucose-intolerant patients: anthropometric and fasting variables; format: in vivo, human; settings: mean ± SD; for BMI: 9 patients
Description: The objective of this study was to evaluate the effects of changing insulin action—after treatment with an insulin sensitizer (metformin)—on circulating BPI in subjects with glucose intolerance.
Patients were recruited from the Diabetes and Endocrinology Unit at Hospital de Girona Dr Josep Trueta. They were offered participation in the study if they were between 30 and 65 years old and fulfilled all the inclusion criteria. Men and women were both included, but women only when surgical sterility was documented or when they were post-menopausal or when a reliable method of contraception was used. The inclusion criteria were as follows: a) body mass index (BMI) between 22 and 35 kg/m^2, b) impaired glucose tolerance by an OGTT performed two months before the beginning of the study or a fasting glucose level between 110 and 140 mg/dl, c) stability of diet and physical exercise within the past two months. All subjects signed a written informed consent.
(§1) The clinical study was performed in accordance with the Declaration of Helsinki (revised version of Hong Kong 1989) as well as with the EC Note for guidance “Good clinical practice for studies on medicinal products in the European Community”. It was approved by the local Ethics Committee and the Spanish Health Department (Clinical assay number: 97/337). Thirty-one patients were randomized either to placebo or metformin according to the randomization tablets supply generated by LIPHA using the computer program RANCODE +3.1. A dietician with the aim of assuring a stable weight gave general diabetic dietary advice at the beginning of the study. Two months after the first visit (visit 2) subjects started taking metformin or placebo, one tablet per day (850 mg) for the first week and then two tablets per day (one after breakfast and one after dinner) for the following eleven weeks. Drug compliance was checked by tablet counts and any side effect was recorded at visit 3 (6 weeks after randomization) and at visit 4 (at the end of the study).
Out of 118 pre-selected subjects, 31 patients were randomized for the study (16 to metformin and 15 to placebo). Six patients ([…] and 3 on placebo) discontinued early and two non-compliant patients were excluded (both in metformin group). 21 patients (9 on metformin and 12 on placebo) were finally analyzed.

[2] = system: subjects with glucose intolerance; assay: CIGMA (continuous infusion of glucose with model assessment) in the metformin study; format: in vivo, human; settings: mean ± SD; for Achieved C-peptide / Achieved glucose / Achieved insulin: after intravenous glucose
Experimental: as §1
(§2) To assess glucose tolerance, an OGTT was performed after an overnight fast. Insulin sensitivity was evaluated by HOMA (Homeostasis model assessment) using basal (mean of three samples obtained at 5 minutes interval) glucose and insulin (Bonora E, et al., Diabetes Care, 2000, vol. 23, pp. 57-63). Beta cell function was calculated by CIGMA (Continuous infusion of glucose with model assessment) from achieved C-peptide and glucose values (Hosker J P, et al., Diabetologia 1985, vol. 28, pp. 401-11). CIGMA test consists of a continuous intravenous infusion of 5-mg glucose per kg of ideal body weight.min^−1 using a 10 g.dl^−1 glucose solution with model assessment of glucose, insulin and C-peptide (RIA, Byk-Sangtec Diagnostica, Dietzenbach, Germany) values obtained before (basal value, mean value of three samples obtained at 5 minute intervals) and at the end (achieved value, mean value of samples obtained at 50, 55 and 60 minutes) of the test. C-peptide detection level was 0.1 ng/ml and had intra- and inter-assay coefficients of variation of 2.6% and 4.4%.

[3] = system: subjects with glucose intolerance; assay: Insulin sensitivity by HOMA (Homeostasis model assessment) in the metformin study; format: in vivo, human; settings: mean ± SD
Experimental: as §1
as §2, with “C-peptide detection level was 0.1 ng/ml and had intra- and inter-assay coefficients of variation of 2.6% and 4.4%.” left out

[4] = system: subjects with glucose intolerance; assay: Oral glucose tolerance test (OGTT) in the metformin study; format: in vivo, human; settings: mean ± SD
Experimental: The clinical study was performed in accordance with the Declaration of Helsinki (revised version of Hong Kong 1989) as well as with the EC Note for guidance “Good clinical practice for studies on medicinal products in the European Community”. It was approved by the local Ethics Committee and the Spanish Health Department (Clinical assay number: 97/337). Thirty-one patients were randomized either to placebo or metformin according to the randomization tablets supply generated by LIPHA using the computer program RANCODE +3.1. A dietician with the aim of assuring a stable weight gave general diabetic dietary advice at the beginning of the study. […] Drug compliance was checked by tablet counts and any side effect was recorded at visit 3 (6 weeks after randomization) and at visit 4 (at the end of the study).
To assess glucose tolerance, an OGTT was performed after an overnight fast. Insulin sensitivity was evaluated by HOMA (Homeostasis model assessment) using basal (mean of three samples obtained at 5 minutes interval) glucose and insulin (Bonora E, et al., Diabetes Care, 2000, vol. 23, pp. 57-63). Beta cell function was calculated by CIGMA (Continuous infusion of glucose with model assessment) from achieved C-peptide and glucose values (Hosker J P, et al., Diabetologia 1985, vol. 28, pp. 401-11). […]

[5] = system: BPI; assay: Circulating plasma BPI (BPI ELISA) in the metformin study; format: in vivo, human
Experimental: BPI ELISA: Plasma EDTA BPI concentrations were measured by a sandwich enzyme-linked immunosorbent assay (Human BPI ELISA kit, HyCult biotechnology b.v.; P B Uden, The Netherlands) according to the manufacturer's instructions. The kit has an assay sensitivity of 250 pg/ml. […] The clinical study was performed in accordance with the Declaration of Helsinki (revised version of Hong Kong 1989) as well as with the EC Note for guidance “Good clinical practice for studies on medicinal products in the European Community”. It was approved by the local Ethics Committee and the Spanish Health Department (Clinical assay number: 97/337). Thirty-one patients were randomized either to placebo or metformin according to the randomization tablets supply generated by LIPHA using the computer program RANCODE +3.1. A dietician with the aim of assuring a stable weight gave general diabetic dietary advice at the beginning of the study. Two months after the first visit (visit 2) subjects started taking metformin or placebo, one tablet per day (850 mg) for the first week and then two tablets per day (one after breakfast and one after dinner) for the following eleven weeks. Drug compliance was checked by tablet counts and any side effect was recorded at visit 3 (6 weeks after randomization) and at visit 4 (at the end of the study).

[6] = system: ob/ob mice; assay: Effects of administration of BPI on blood glucose concentration in ob/ob mice; format: in vivo
Experimental: The objective of this study was to evaluate the effects of administration of BPI on glucose concentration on ob/ob mice
Obese mice ob/ob were treated for 6 days with a daily intraperitoneal dose of 2.5 ng of human purified BPI per gram of body weight or vehicle (control mice). Before the treatment both groups (control and BPI treated) presented a high glycemia and no differences were identified between both groups (342±33 and 342±38 mg/dl, respectively).

[7] = metformin, 12 weeks, p<0.05 within group
[8] = metformin, 12 weeks, p<0.05 within group, listed as metformin

CN(C)C(=N)N=C(N)N [Metformin, metformin]
BMI ([1]; metformin 850 mg tablets, two per day, 12 weeks): 27.7 ± 4.3 Kg/m^2 | BMI ([1]; metformin group, baseline (before treatment)): 28.0 ± 4.5 Kg/m^2 | Fasting C-peptide ([1]; metformin group, baseline): 2.5 ± 0.7 ng/mL | Fasting glucose ([1]; metformin group, baseline): 110.1 ± 9.9 mg/dL | Fasting insulin ([1]; metformin group, baseline): 11.6 ± 5.4 mU/l | Waist circumference ([1]; metformin group, baseline): 95.9 ± 11.5 | Waist-to-hip ratio ([1]; metformin group, baseline): 0.96 ± 0.1 | Waist circumference ([1]; metformin, 12 weeks): 94.8 ± 9.4 | Waist-to-hip ratio ([1]; metformin, 12 weeks): 0.92 ± 0.07 | Fasting glucose ([1]; metformin, 12 weeks, p<0.01 within group): 98.9 ± 15.7^a mg/dl | Fasting glucose ([1]; metformin, 12 weeks, p<0.01 within group, listed as metformin): decreased | Fasting C-peptide [1, 7]: 1.8 ± 0.5^b ng/ml | Fasting insulin [1, 7]: 8.8 ± 3.5^b mU/l | Fasting C-peptide [1, 8]: statistically lower | Fasting insulin [1, 8]: statistically lower | Achieved C-peptide ([2]; metformin group, baseline): 5.2 ± 1.2 ng/mL | Achieved glucose ([2]; metformin group, baseline): 190.5 ± 18.9 mg/dL | Achieved insulin ([2]; metformin group, baseline): 28.5 ± 13.5 mU/l | Achieved glucose ([2]; metformin, 12 weeks): 174.6 ± 34.5 mg/dL | Achieved insulin ([2]; metformin, 12 weeks): 23.3 ± 7.6 mU/l | Achieved C-peptide [2, 7]: 4.2 ± 1.0^b ng/ml | Achieved C-peptide [2, 8]: statistically lower | CIGMA beta cell function ([2]; metformin group, baseline): 82.8 ± 24.0% | CIGMA beta cell function ([2]; metformin, 12 weeks): 90.9 ± 34.0% | CIGMA beta cell function ([2]; metformin, 12 weeks, listed as metformin): not modified | HOMA sensitivity ([3]; metformin group, baseline): 37.4 ± 15.2% | HOMA sensitivity [3, 7]: 50.4 ± 23.2^b % | HOMA sensitivity [3, 8]: improved | 120′ OGTT glucose ([4]; metformin group, baseline): 162.2 ± 27.8 mg/dL | 120′ OGTT glucose ([4]; metformin, 12 weeks): 140.6 ± 42.9 mg/dL | BPI (circulating, plasma) ([5]; metformin group, baseline, median (interquartile range 1.26-7.73)): 2.75 ng/mL | BPI (circulating, plasma) ([5]; metformin, 12 weeks, median (interquartile range 2.56-38.8), p = 0.017 within group): 7.49 ng/mL | BPI (circulating, plasma) ([5]; metformin, 12 weeks, median (interquartile range 2.56-38.8), p = 0.017 within group, listed as metformin): significantly increased

B1: BPI: human purified bactericidal/permeability-increasing (BPI) protein, 456 residues, approximately 55 kD (protein, listed as Homo sapiens)
chain: VNPGVVVRISQKGLDYASQQGTAALQKELKRIKIPDYSDSFKIKHLGKGHYSFYSMDIREFQLPSSQISMVPNVGLKFSISNANIKISGKWKAQKRFLKMSGNFDLSIEGMSISADLKLGSNPTSGKPTITASSCSSHINSVHVHISKSKVGWLIQLFHKKIESALRNKMNSQVCEKVTNSVSSKLQPYFQTL
GLU (blood glucose concentration), Mean ([6]; BPI treated group, day 0 (before the treatment)): 342 ± 38 mg/dL and 341.67 mg/dL | GLU (blood glucose concentration), Mean ([6]; daily intraperitoneal 2.5 ng human purified BPI per gram body weight, 3 days of treatment): 289.00 mg/dL | GLU (blood glucose concentration), Mean ([6]; daily intraperitoneal 2.5 ng human purified BPI per gram body weight, 6 days of treatment): 261 ± 21 mg/dL and 261.80 mg/dL | Effect on glycemia ([6]; treatment for 3 or 6 days with 2.5 ng/g BPI i.p. daily, vs control): pronounced decrease of glycemia
